Tests used:
[1] = system: succinoxidase system of beef heart mitochondria; test: CoQ activity: restoring succinoxidase activity of pentane-extracted beef heart mitochondria (manometric); assay type: biochemical; parameters: key to CoQ10 Act. Index: activity index relative to CoQ10 standard; conditions: for Activation at 400 nMoles %: 400 nmoles of analog, relative to the response to 400 nmoles CoQ10; for Maximum Activation: 400 nm of analog per flask, percent of the response to CoQ4; for CoQ10 Act. Index: calculated from relative effectiveness, activity in terms of that of CoQ10; for Estimated nMoles Required for 50% Activation: level required to reinstate approximately 50% of maximum succinoxidase activity, 0.65-0.85 mg PEBHM; for Relative Effectiveness: molar amounts of analog and CoQ4 required to restore the same level of succinoxidase to PEBHM, relative to CoQ4
Experimental: The CoQ activity of each analog was assessed by examining the ability of the analog to stimulate the succinoxidase activity of beef-heart mitochondria (BHM) from which the naturally occurring CoQ had been removed by pentane extraction. (Table I) Beef heart mitochondria were prepared by the method of Smith (Methods Enzymol., 10, 81 (1967). The pentane extraction was conducted as described by Szarkowska (Arch. Biochem. Biophys., 113, 519 (1966); PEBHM was frozen and used within 10 days of preparation, since pentane extraction decreases the stability of BHM. Succinoxidase activity was determined manometercally, using a Gilson differential respirometer (Iwamoto, Y., Hansen, I. L., Porter, T. H., and Folkers, K., Biochem. Biophys. Res. Comm., 58, 633 (1974), and is reported as […] of oxygen per minute per milligram of protein. A commercial soybean phospholipid preparation (Asolectin), dispersed by sonication (Fleischer, S. and Fleischer, B., Methods Enzymol., 10, 421 (1967), was used to provide phospholipid micelles, and test substances were added as solutions in ethanol. Within Table I are listed the CoQ activities of the analogs and selected reference compounds. The CoQ10 Activity Index is a measure of the effectiveness of the analogs, relative to the standard, in stimulating a submaximal response of succinoxidase activity. Specific activity of the succinoxidase system in response to stimulation by exogenous CoQ10 is given in footnote a of the Table. The quantity of analog to be added was chosen to provide a level of succinoxidase activity corresponding to the nearly linear portion of the activity: dose curve, in which succinoxidase activity stimulated is approximately proportional to the level of analog used. The second column lists the nanomolar quantity of analog required to provide a stimulation of about half of the maximum response. The relative response of the succinoxidase system to 400 nmol of each analog is listed in the third column of the Table. This level of analog is sufficient to insure significant excess over the stoichiometric amount, and maximum response to CoQ4 is obtained at one-tenth to one-twentieth of this dose level. The response to 400 nmol of CoQ10 is lower than is the response to other components listed. The very long side-chain of CoQ10, the natural coenzyme, may hinder the transport of exogenous CoQ10 to the active site.

[2] = system: oxidative phosphorylation at site I (ETPH particles); test: Assay of CoQ and analogs for oxidative phosphorylation at site I with ETPH particles; assay type: biochemical; parameters: Δ NADH / Δ G6P: unit not given here; conditions: CoQ or analog 0.12 nM (footnote 0.12 mM); for μmoles NADH /min/mg: 200 μg ETPH particles, no rotenone; for μmoles NADH min/mg +Rotenone / % Inhibition by Rotenone: rotenone 2 μM
Experimental: Assays were performed with 200 μg of ETPH particles as described by
Schatz and Racker (J. Biol. Chem., 241, 1429 (1966)). The concentration o
the CoQ compounds was 0.12 mM. Rotenone was added at 2 μM

[3] = target: complex III (Bos taurus, UniProt P00157+P13272); test: Reduction of cytochrome c by reduced CoQ and analogs catalyzed by complex III; assay type: biochemical; conditions: for nMoles Cytochrome c Reduced/min / Non-enzymatic Rate of Cytochrome c Reduction: 10 μM reduced CoQ or analog; for nMoles Cytochrome c Reduced/min: 2 μg complex III, 8 μM cytochrome c; for Non-enzymatic Rate of Cytochrome c Reduction: blank without complex III; for % Inhibition by Antimycin A: antimycin A 1 μg/ml
Experimental: Reduction of cytochrome c was measured at 550-540 nm. The reaction mixtur
contained in 1.0 ml: […] KP1, pH 7.5; 0.05 mM EDTA; 8 μM
cytochrome c1; 10 μM reduced CoQ or analog and 2 μg complex
III. When indicated, antimycin A was added to the assay medium at 1
μg/ml. An extinction coefficient of 19 mM^-^1 was used for […]

[4] = literature / general knowledge; cited from earlier work

SMILES | Activation at 400 nMoles % [1] | Maximum Activation [1] | CoQ10 Act. Index [1] | Estimated nMoles Required for 50% Activation [1] | Relative Effectiveness [1] | also measured
CCCCCC=CCC=CCC=CCC=CCCCC1=C(C)C(=O)C(OC)=C(OC)C1=O [4', 7', 10', 13'-Nonadecatetraenyl, 2,3-Dimethoxy-5-methyl-6-(4',7',10',13'-nonadecatetraenyl)-1,4-benzoquinone] | 118% | 92% | 7.7 | 5.4 nmol | 37% | –
CCC=CCC=CCC=CCCCCCCCC1=C(C)C(=O)C(OC)=C(OC)C1=O [8', 11', 14'-Heptadecatrienyl, 2,3 -Dimethoxy-5-methyl-6-(8',11',14'-heptadecatrienyl)-1,4-benzoquinone] | 123% | 96% | 12.5 | 3.3 nmol | 60% | –
CCCCCC=CCC=CCCCCCCCC1=C(C)C(=O)C(OC)=C(OC)C1=O [8', 11'-Heptadecadienyl, 2,3-Dimethoxy-5-methyl-6-(8',11'-heptadecadienyl)-1,4-benzoquinone] | 122% | 95% | 9.0 | 4.7 nmol | 43% | –
CCCCCCCCC=CCCCCCCCC1=C(C)C(=O)C(OC)=C(OC)C1=O [8'-Heptadecenyl, 2,3-Dimethoxy-5-methyl-6-(8'-heptadecenyl)-1,4-benzoquinone] | 121% | 94% | 5.8 | 7.1 nmol | 28% | –
CCCCCCC=CCCCCCCCC1=C(C)C(=O)C(OC)=C(OC)C1=O [8'-Pentadecenyl] | 119% | 93% | 11.1 | 3.4 nmol | 58% | –
CCC=CCC=CCC=CCCCCCCCCCC1=C(C)C(=O)C(OC)=C(OC)C1=O [10', 13', 16'-Nonadecatrienyl, 2,3-Dimethoxy-5-methyl-6-(10',13' ,16'-nonadecatrienyl)-1,4-benzoquinone] | 128% | 100% | 10.2 | 4.1 nmol | 49% | –
CCCCCC=CCC=CCCCCCCCCCC1=C(C)C(=O)C(OC)=C(OC)C1=O [10', 13'-Nonadecadienyl] | 123% | 96% | 7.3 | 5.7 nmol | 35% | –
CCCCCCCCC=CCCCCCCCCCC1=C(C)C(=O)C(OC)=C(OC)C1=O [10'-Nonadecenyl, 2,3-Dimethoxy-5-methyl-6-(10'-nonadecenyl)-1,4-benzoquinone] | 123% | 96% | 5.8 | 7.1 nmol | 28% | –
COC1=C(OC)C(=O)C(C/C=C(\C)CC/C=C(\C)CC/C=C(\C)CCC=C(C)C)=C(C)C1=O [CoQ4, reference compound] | 128% | 100% | 20.8 | 2.0 nmol | 100% | amount giving full restoration of activity of succinoxidase in PEBHM [1]: more than 20 nmoles; maximum activity of succinoxidase in PEBHM ([1]; full restoration, more than 20 nmoles of CoQ4): 0.700 μatm O2 /mg protein min; ability to elicit maximum activation of succinoxidase ([1]; interpretation of Table II): can elicit maximum activation; effectiveness / utilization in the succinoxidase mitochondrial system ([1]; interpretation of Table II): effectively utilized
COC1=C(OC)C(=O)C(C/C=C(\C)CC/C=C(\C)CC/C=C(\C)CC/C=C(\C)CC/C=C(\C)CC/C=C(\C)CCC=C(C)C)=C(C)C1=O [CoQ7, reference compound] | 115% | 90% | 1.7 | 24.4 nmol | 8.2% | –
CCCCCCCCCCCCCCCCCCCCC1=C(C)C(=O)C(OC)=C(OC)C1=O [Eicosyl, 2,3-Dimethoxy-5-methyl-6-n-eicosyl-1,4-benzoquinone] | 79% | 62% | 0.9 | 44.4 nmol | 4.5% | ability to elicit maximum activation of succinoxidase ([1]; interpretation of Table II): cannot stimulate maximum activation
COC1=C(OC)C(=O)C(CC=C(C)C)=C(C)C1=O [Q1, reference compound] | – | – | – | – | – | P/NADH Ratio [2]: 0.522; Δ G6P [2]: 0.046; Δ NADH [2]: 0.088; μmoles NADH /min/mg [2]: 0.45 μmoles NADH /min/mg; μmoles NADH min/mg +Rotenone [2]: 0.03 μmoles NADH min/mg; % Inhibition by Rotenone [2]: 93%; nMoles Cytochrome c Reduced/min [3]: 12.4 nmol/min; Non-enzymatic Rate of Cytochrome c Reduction [3]: 0.6 nmol/min; % Inhibition by Antimycin A [3]: 100%; chemical stability of isoprenoid quinones [4]: relative chemical instability
COC1=C(OC)C(=O)C(C/C=C(\C)CCC=C(C)C)=C(C)C1=O [Q2, reference compound] | – | – | – | – | – | P/NADH Ratio [2]: 0.57; Δ G6P [2]: 0.045; Δ NADH [2]: 0.079; μmoles NADH /min/mg [2]: 0.25 μmoles NADH /min/mg; μmoles NADH min/mg +Rotenone [2]: 0.02 μmoles NADH min/mg; % Inhibition by Rotenone [2]: 92%; nMoles Cytochrome c Reduced/min [3]: 27.4 nmol/min; Non-enzymatic Rate of Cytochrome c Reduction [3]: 0.2 nmol/min; % Inhibition by Antimycin A [3]: 98%; chemical stability of isoprenoid quinones [4]: relative chemical instability
CC(C)=CCC/C(C)=C/CC/C(C)=C/CC1=CC(=O)C(C)=C(C)C1=O [plastoquinone-3] | – | – | – | – | – | chemical stability of isoprenoid quinones [4]: extremely unstable

Reference: patent publication US3974187A, “Synthetic analogs having the activity of naturally occurring forms of coenzyme Q” (priority 1975, dated 1976)
